# Data reported in article PMC2999670 (The Journal of steroid biochemistry and molecular biology, 2010).
# Residue numbers refer to the chain shown, from its start. Read-outs that look alike come from different tables or passages of the source.
# Experiments:
# [1] = biological target: T1, human 3β-HSD1 (Homo sapiens, UniProt P14060); assay: Michaelis-Menten kinetics of 3β-HSD substrate; type: biochemical; conditions: pH 7.4
# [2] = biological target: T2, human 3β-HSD2 (Homo sapiens, UniProt P26439); assay: Michaelis-Menten kinetics of 3β-HSD substrate; type: biochemical; conditions: pH 7.4
# T2 sequence (P26439 1-372): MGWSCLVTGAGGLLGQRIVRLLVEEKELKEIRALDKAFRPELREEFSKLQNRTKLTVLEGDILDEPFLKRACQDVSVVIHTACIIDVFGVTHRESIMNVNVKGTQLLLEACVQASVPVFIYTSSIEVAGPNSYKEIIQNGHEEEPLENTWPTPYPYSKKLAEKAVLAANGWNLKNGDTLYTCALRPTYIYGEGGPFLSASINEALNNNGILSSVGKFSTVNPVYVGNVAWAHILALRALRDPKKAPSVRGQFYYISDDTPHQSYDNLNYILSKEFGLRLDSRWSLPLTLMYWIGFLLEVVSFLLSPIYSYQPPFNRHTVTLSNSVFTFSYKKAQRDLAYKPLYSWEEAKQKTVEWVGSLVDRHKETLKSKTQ
# [3] = biological target: T3, R195P-1 mutant of 3β-HSD1 (Homo sapiens, UniProt P14060, R196P); assay: Michaelis-Menten kinetics of 3β-HSD substrate; type: biochemical; conditions: Table 2, substrate DHEA 1–100 μM, NAD+ 0.2 mM, pH 7.4
# T3 sequence (P14060 1-373 R196P): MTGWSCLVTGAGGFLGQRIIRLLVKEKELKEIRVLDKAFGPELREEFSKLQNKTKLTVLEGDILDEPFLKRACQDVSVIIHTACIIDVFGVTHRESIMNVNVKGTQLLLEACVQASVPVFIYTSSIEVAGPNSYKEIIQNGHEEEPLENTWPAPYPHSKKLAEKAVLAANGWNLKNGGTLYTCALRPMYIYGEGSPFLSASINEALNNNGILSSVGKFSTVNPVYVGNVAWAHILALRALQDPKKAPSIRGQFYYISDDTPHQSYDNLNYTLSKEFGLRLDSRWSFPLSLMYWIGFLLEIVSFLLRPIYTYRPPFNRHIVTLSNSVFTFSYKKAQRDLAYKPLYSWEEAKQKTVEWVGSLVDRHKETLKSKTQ
# [4] = biological target: T4, P195R-2 mutant of 3β-HSD2 (Homo sapiens, UniProt P26439, P195R); assay: Michaelis-Menten kinetics of 3β-HSD substrate; type: biochemical; conditions: Table 2, substrate DHEA 1–100 μM, NAD+ 0.2 mM, pH 7.4
# T4 sequence (P26439 1-372 P195R): T2 sequence (P26439 1-372) with P195R
# [5] = biological target: T5, H156Y-1 mutant of 3β-HSD1 (Homo sapiens, UniProt P14060, H157Y); assay: Michaelis-Menten kinetics of 3β-HSD substrate; type: biochemical; conditions: Table 4; substrate DHEA 3-100 μM, NAD+ 200 μM, 27° C, pH 7.4
# T5 sequence (P14060 1-373 H157Y): T3 sequence (P14060 1-373 R196P) with H157Y, P196R
# [6] = biological target: T1, human 3β-HSD1; assay: Inhibition of 3β-HSD activity of purified enzyme, Dixon analysis; type: biochemical
# [7] = biological target: T2, human 3β-HSD2; assay: as above; type: biochemical
# [8] = biological target: T5, H156Y-1 mutant of 3β-HSD1; assay: as above; type: biochemical
# [9] = system: MCF-7 Tet-off 3β-HSD1 aromatase cells; conditions: cited from earlier work
# [10] = system: MCF-7 Tet-off 3β-HSD2 aromatase cells; conditions: read-out: IC50, proliferation; DHEA-stimulated growth; cited from earlier work
# [11] = system: other enzymes in steroidogenesis (e.g., 17β-HSD); conditions: cited from earlier work
# [12] = system: MCF-7 Tet-off 3β-HSD1 aromatase cells; conditions: read-out: EC50, stimulation of growth; cited from earlier work
# [13] = system: MCF-7 Tet-off 3β-HSD2 aromatase cells; conditions: read-out: EC50, stimulation of growth; cited from earlier work
# [14] = system: MCF-7 Tet-off 3β-HSD2 aromatase cells; assay: Inhibition of DHEA-stimulated proliferation; type: cell-based, human; conditions: for IC50: Homo sapiens, MCF7, 240 h, read-out: IC50, proliferation; for inhibition of growth in the presence of doxycycline: doxycycline 10 ng/ml, DHEA 5.0 nM
# [15] = system: MCF-7 cells; assay: Proliferation in the absence of DHEA substrate; type: cell-based, human
# [16] = system: MCF-7 Tet-off 3β-HSD1 aromatase cells; assay: Inhibition of DHEA-stimulated proliferation; conditions: for inhibition of growth in the presence of doxycycline: doxycycline 10 ng/ml, DHEA 5.0 nM
# [17] = biological target: T3, R195P-1 mutant of 3β-HSD1; assay: Inhibition of 3β-HSD activity of purified enzyme, Dixon analysis; type: biochemical
# [18] = Table 2, substrate DHEA 1–100 μM, NAD+ 0.2 mM
# [19] = Table 4, substrate DHEA 3-100 μM, NAD+ 200 μM, 27° C
# [20] = ratio of proliferation IC50 values
# T1 sequence (P14060 whole entry): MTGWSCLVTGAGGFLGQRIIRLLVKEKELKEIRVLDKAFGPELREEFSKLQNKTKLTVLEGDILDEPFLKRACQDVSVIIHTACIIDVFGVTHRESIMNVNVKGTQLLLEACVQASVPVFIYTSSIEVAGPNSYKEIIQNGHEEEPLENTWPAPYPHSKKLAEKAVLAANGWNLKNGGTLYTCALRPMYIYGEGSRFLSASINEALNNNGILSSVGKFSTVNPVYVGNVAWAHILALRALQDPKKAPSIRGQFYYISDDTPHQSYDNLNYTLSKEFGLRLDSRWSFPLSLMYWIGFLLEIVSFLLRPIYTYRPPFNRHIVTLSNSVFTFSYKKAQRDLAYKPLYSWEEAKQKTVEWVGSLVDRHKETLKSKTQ
smiles,measurement,setting,value
"C[C@]12CC[C@H](O)CC1=CC[C@@H]1[C@@H]2CC[C@]2(C)C(=O)CC[C@@H]12 [DHEA, dehydroepiandrosterone]",3β-HSD kcat,[1]; [18],0.055 s⁻¹
same,3β-HSD kcat,[1]; [19],0.055 s⁻¹
same,3β-HSD kcat,[2]; [18],0.145 s⁻¹
same,3β-HSD kcat,[2]; [19],0.118 s⁻¹
same,3β-HSD kcat,[3],0.128 s⁻¹
same,Km,[3]; read-out: 3β-HSD Km,10.7 µM
same,3β-HSD kcat,[4],0.0933 s⁻¹
same,Km,[4]; read-out: 3β-HSD Km,7.7 µM
same,3β-HSD kcat,[5],0.118 s⁻¹
C[C@]1(O)CC[C@H]2[C@@H]3CC[C@@]45O[C@]4(C)C(O)=C(C#N)C[C@]5(C)[C@H]3CC[C@@]21C [epostane],Ki,[6],70 nM
same,Ki,[7],980 nM
same,Ki,[8],1180 nM
same,fold higher affinity vs MCF7 Tet-off 3β-HSD2 aromatase cells,[9]; [20],12 fold
same,IC50,"[9]; read-out: IC50, proliferation, DHEA-stimulated growth",200 nM
same,IC50,[10],2400 nM
same,effect on other enzymes in steroidogenesis,[11],no effect
C[C@]12CC[C@@H]3c4ccc(O)cc4CC[C@H]3[C@@H]1CC[C@@H]2O [estradiol],EC50,[12],0.24 nM
same,EC50,[13],0.32 nM
C[C@]12CC[C@@H]3c4ccc(O)cc4CC[C@H]3[C@@H]1CCC2=O [estrone],EC50,[12],0.39 nM
same,EC50,[13],0.34 nM
N#Cc1ccc(C(c2ccc(C#N)cc2)n2cncn2)cc1 [letrozole],IC50,[14],0.9 nM
same,inhibition of growth in the presence of doxycycline,[14],little change in rate
same,stimulation of proliferation / ER-agonist activity,[15],Neither trilostane nor letrozole stimulated the proliferation
same,inhibition of growth in the presence of doxycycline,[16],little change in rate
"C[C@]12CC[C@H]3[C@@H](CC[C@@]45O[C@@H]4C(O)=C(C#N)C[C@]35C)[C@@H]1CC[C@@H]2O [trilostane, 2α-cyano-4α ,5α-epoxy-17β-ol-androstane-3-one]",fold lower Ki for 3β-HSD1 compared to 3β-HSD2,[6]; competitive 3β-HSD1 vs noncompetitive 3β-HSD2,16 fold
same,mode of inhibition,[7]; Dixon analysis,noncompetitive
same,Ki,[17],2560 ± 220 nM
same,mode of inhibition,[17]; Dixon analysis,noncompetitive
same,IC50,[14],4900 nM
same,inhibition of growth in the presence of doxycycline,[14],greatly attenuated
same,stimulation of proliferation / ER-agonist activity,[15],Neither trilostane nor letrozole stimulated the proliferation
same,effect on other enzymes in steroidogenesis,[11],no effect
same,IC50,"[16]; Homo sapiens, MCF7, 240 h, read-out: IC50, proliferation",300 nM
same,inhibition of growth in the presence of doxycycline,[16],greatly attenuated
same,fold higher affinity vs MCF7 Tet-off 3β-HSD2 aromatase cells,[16]; [20],16 fold
